In one data set the target is T1, PI3K beta (Homo sapiens, UniProt P42338).
T1 construct: for the full-length p110-b subunit are generated and fused by overlapping PCR; His tag (C); made in house; host or cells: baculovirus; Tn5 (Trichoplusia ni) or TiniPro insect cells
Description: PI3 kinase assay (Kinase-Glo luminescence), PI3K beta. The format is biochemical. The following applies: Enzymatic Data; read-out: PI3K beta IC50 [umol]. A digest of the protocol: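 PI3Kβ (25 nM, BV-949) with 10 μg/mL phosphatidylinositol in Tris pH 7.5/MgCl2/NaCl/CHAPS/DTT buffer; reaction started with 1 μM ATP, 60 min at room temperature. ATP depletion read by Kinase-Glo luminescence; 8-point dilutions, IC50 by four-parameter logistic fit.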
(In general: Kinase-Glo measures the ATP left after a reaction by luminescence.)

Another data set deals with T2, PI3K delta (Homo sapiens, UniProt O00329).
T2 construct: for the full-length p110-d subunit are generated and fused by overlapping PCR; His tag (C); made in house; host or cells: baculovirus; Tn5 (Trichoplusia ni) or TiniPro insect cells
T2 sequence (O00329 with tags, fused parts or gaps limits assumed): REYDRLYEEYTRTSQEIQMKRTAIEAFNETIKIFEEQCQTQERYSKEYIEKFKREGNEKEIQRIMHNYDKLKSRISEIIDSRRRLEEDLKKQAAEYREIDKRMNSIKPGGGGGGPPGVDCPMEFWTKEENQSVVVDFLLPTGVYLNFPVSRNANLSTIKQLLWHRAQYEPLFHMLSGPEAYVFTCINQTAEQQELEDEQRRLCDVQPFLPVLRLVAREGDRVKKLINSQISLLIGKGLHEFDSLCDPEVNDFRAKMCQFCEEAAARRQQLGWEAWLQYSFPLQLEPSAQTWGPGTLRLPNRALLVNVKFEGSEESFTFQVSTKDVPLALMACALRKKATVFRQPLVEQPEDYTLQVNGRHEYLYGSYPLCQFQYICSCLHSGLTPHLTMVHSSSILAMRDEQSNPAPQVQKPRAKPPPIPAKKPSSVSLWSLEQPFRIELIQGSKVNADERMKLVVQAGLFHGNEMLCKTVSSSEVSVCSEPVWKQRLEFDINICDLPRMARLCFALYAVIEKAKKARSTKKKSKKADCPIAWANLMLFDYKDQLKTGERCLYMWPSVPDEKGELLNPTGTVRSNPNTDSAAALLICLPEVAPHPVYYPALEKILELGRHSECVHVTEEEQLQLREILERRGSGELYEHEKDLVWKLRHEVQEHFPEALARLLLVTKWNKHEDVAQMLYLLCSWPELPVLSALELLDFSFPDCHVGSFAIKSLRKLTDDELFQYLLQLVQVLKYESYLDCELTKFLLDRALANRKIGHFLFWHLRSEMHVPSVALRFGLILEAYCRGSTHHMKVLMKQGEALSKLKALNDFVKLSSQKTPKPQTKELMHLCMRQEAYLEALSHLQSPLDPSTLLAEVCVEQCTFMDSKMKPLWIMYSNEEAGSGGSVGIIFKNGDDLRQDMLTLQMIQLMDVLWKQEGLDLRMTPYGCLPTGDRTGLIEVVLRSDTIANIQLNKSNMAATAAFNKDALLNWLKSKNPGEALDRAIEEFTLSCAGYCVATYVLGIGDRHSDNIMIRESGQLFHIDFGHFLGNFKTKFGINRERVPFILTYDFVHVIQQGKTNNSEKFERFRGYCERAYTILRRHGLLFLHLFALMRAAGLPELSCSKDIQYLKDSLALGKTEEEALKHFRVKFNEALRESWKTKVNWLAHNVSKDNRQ
The experiment in a line: PI3 kinase assay (Kinase-Glo luminescence), PI3K delta. The format is biochemical. The following applies: Enzymatic Data; read-out: PI3K delta IC50 [umol]. A digest of the protocol: (§1)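 Recombinant PI3K constructs (alfa 10 nM, delta 10 nM, gamma 150 nM) with 1 μM ATP and 10 μg/mL phosphatidylinositol in Tris pH 7.5, MgCl2, NaCl, CHAPS, DTT; 60 min (alfa, delta) or 120 min (gamma) at room temperature. ATP depletion read by Kinase-Glo luminescence; IC50 from 4-parameter logistic fit over 8 concentrations.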

The target in the next data set is T3, PI3K alfa (Homo sapiens, UniProt P42336).
T3 construct: for the p110-a subunit (with a deletion of the first 20 amino acids); His tag (C); made in house; host or cells: baculovirus; Tn5 (Trichoplusia ni) or TiniPro insect cells
T3 sequence (P42336 with tags, fused parts or gaps limits assumed): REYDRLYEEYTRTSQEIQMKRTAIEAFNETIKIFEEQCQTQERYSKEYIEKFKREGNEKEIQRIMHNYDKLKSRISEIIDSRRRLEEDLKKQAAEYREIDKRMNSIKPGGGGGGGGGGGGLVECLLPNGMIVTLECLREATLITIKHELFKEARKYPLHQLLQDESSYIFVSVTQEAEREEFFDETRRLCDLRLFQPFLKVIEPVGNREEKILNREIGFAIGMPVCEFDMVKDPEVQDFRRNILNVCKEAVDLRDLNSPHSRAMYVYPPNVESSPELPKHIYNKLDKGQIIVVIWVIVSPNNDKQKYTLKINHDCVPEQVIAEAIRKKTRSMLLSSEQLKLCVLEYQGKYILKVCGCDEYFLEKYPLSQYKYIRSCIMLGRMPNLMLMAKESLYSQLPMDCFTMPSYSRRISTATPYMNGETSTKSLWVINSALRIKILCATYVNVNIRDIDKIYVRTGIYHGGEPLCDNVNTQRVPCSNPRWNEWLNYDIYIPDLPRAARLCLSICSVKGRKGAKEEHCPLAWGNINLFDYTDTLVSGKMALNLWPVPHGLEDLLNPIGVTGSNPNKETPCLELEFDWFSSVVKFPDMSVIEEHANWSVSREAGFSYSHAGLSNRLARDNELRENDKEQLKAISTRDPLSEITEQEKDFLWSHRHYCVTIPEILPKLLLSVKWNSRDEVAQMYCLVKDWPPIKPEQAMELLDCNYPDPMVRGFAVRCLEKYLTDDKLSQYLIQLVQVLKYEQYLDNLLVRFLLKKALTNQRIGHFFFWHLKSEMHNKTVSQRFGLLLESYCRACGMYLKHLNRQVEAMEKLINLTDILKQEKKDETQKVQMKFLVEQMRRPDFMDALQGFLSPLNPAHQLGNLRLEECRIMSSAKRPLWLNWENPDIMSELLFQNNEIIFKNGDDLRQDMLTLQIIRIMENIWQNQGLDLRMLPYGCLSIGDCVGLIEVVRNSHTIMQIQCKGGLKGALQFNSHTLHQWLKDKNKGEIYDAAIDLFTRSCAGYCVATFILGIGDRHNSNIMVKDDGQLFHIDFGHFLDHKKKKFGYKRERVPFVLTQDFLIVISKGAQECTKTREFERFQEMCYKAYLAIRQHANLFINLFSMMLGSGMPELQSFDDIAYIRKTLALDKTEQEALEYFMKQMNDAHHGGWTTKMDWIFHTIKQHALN
Description: PI3 kinase assay (Kinase-Glo luminescence), PI3K alfa. The format is biochemical. The following applies: Enzymatic Data; read-out: PI3K alfa IC50 [umol]. A digest of the protocol:
as §1

The target in the next data set is T4, PI3K gamma (Homo sapiens, UniProt P48736).
T4 construct: PI3Kγ BV-950 p110g(D144aa)-C-Term His Tag; His tag (C); made in house; host or cells: construct from the Roger Williams lab (MRC LMB) in pVL1393; baculovirus; Tn5 (Trichoplusia ni) or TiniPro insect cells
T4 sequence (P48736 144-1102 limits assumed): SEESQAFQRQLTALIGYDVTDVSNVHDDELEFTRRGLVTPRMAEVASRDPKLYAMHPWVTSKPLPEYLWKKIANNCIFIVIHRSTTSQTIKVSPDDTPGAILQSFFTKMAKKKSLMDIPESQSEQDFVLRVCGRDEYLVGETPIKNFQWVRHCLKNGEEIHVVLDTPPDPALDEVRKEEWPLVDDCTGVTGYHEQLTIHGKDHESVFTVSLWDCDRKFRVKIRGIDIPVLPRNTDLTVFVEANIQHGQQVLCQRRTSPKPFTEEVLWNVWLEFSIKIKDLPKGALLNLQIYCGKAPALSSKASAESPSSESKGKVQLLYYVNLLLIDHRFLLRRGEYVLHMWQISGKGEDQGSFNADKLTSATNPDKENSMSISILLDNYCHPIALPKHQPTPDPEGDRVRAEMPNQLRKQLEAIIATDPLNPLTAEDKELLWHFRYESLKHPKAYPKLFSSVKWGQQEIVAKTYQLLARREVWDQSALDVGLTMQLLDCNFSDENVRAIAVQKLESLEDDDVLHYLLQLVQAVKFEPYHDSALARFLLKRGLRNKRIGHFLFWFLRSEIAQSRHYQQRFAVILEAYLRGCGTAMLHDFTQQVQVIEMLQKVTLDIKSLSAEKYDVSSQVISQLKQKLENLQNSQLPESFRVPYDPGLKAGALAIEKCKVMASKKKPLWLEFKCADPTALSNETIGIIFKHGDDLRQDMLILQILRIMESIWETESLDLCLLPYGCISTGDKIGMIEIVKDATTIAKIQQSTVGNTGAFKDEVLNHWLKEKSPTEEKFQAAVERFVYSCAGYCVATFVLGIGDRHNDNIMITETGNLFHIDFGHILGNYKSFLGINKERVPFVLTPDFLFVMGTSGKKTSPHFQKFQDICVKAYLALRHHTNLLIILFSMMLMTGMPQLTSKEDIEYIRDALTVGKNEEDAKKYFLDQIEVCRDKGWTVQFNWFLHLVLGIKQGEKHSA
Description: PI3 kinase assay (Kinase-Glo luminescence), PI3K gamma. The following applies: Enzymatic Data; read-out: PI3K gamma IC50 [umol]. The format is biochemical. A digest of the protocol:
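Kinase-Glo luminescence assay with 1 μM ATP and 10 μg/mL phosphatidylinositol (final), reaction started by ATP addition. IC50 from 4-parameter logistic fit of percent inhibition at 8 compound concentrations (usually 10 down to 0.003 […]).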

For 20 compounds, melting point and IC50 results are on record in patent US20100311729A1, “Substituted imidazopyridazines and pyrrolopyrimidines as lipid kinase inhibitors” (priority 2007, published 2010).

Each structure is given as a SMILES string. A value given as a limit tells only on which side of the number the result lay.

T1 sequence (P42338 with tags, fused parts or gaps limits assumed): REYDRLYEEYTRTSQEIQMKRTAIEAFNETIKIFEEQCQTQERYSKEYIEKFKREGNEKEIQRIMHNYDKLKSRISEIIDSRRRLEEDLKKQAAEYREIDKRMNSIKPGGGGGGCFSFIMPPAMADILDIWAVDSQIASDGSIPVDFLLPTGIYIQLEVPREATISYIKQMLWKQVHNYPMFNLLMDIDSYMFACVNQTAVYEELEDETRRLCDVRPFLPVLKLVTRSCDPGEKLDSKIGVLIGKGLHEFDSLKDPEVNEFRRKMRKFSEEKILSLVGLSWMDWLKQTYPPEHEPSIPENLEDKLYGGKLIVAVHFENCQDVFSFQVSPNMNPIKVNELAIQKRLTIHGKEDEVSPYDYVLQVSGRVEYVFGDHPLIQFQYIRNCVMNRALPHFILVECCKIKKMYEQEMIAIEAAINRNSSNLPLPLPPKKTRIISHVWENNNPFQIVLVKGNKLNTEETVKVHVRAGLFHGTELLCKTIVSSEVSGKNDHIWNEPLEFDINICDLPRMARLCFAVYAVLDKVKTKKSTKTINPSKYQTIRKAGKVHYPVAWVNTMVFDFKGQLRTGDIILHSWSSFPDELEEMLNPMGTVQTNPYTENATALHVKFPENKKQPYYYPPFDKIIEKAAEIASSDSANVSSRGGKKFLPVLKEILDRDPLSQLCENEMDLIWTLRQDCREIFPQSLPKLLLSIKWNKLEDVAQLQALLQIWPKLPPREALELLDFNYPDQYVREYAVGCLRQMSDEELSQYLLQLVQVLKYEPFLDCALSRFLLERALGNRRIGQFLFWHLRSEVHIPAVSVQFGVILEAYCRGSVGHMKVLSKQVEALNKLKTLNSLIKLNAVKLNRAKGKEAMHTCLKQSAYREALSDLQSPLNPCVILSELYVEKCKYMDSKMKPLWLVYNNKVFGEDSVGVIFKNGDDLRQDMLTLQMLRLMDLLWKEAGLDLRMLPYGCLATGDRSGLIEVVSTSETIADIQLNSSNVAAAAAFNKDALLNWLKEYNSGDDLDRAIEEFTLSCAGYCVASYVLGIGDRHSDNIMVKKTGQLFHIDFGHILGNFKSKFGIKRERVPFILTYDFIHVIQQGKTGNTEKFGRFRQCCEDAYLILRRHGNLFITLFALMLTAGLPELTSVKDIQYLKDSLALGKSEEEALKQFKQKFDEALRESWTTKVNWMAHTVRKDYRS

Compound `COc1ccc(-c2cnn3ccc(-c4ccc(OCCCNC(=O)OC(C)(C)C)c(OC)c4)nc23)cc1OC` [Example 25, (3-{4-[3-(3,4-Dimethoxy-phenyl)-pyrazolo[1,5-a]pyrimidin-5-yl]-2-methoxy-phenoxy}-propyl)-carbamic acid tert-butyl ester] returned a melting point of 131 to 133 °C.
`Nc1ncc(-c2cnc3ccc(-c4ccc(OCC5(N)COC5)cc4)nn23)cc1C(F)(F)F` [Example 147, 5-{6-[4-(3-Amino-oxetan-3-ylmethoxy)-phenyl]-imidazo[1,2-b]pyridazin-3-yl}-3-trifluoromethyl-pyridin-2-yl amine] returned a melting point of 198 to 200 °C. The IC50 on PI3K beta was 496 nM. The IC50 at PI3K delta stood at 227 nM. Also, at PI3K alfa, the IC50 stood at 61 nM. Also, the IC50 at PI3K gamma came to 1310 nM.
In the same order, the values of `COC(=O)NC1(COc2ccc(-c3ccc4ncc(-c5cnc(N)c(C(F)(F)F)c5)n4n3)cc2)COC1` [Example 148, (3-{4-[3-(6-Amino-5-trifluoromethyl-pyridin-3-yl)-imidazo[1,2-b]pyridazin-6-yl]-phenoxymethyl}-oxetan-3-yl)-carbamic acid methyl ester] are 220 to 222 °C, 3290 nM, 369 nM, 96 nM and 810 nM.
Regarding `Nc1ncc(-c2cnc3ccc(-c4ccc(OCCCN5CCNC5=O)cc4)nn23)cc1C(F)(F)F` [Example 163, 1-(3-{4-[3-(6-Amino-5-trifluoro-methyl-pyridin-3-yl)-imidazo [1,2-b]pyridazin-6-yl]-phenoxy}-propyl)-imidazolidin-2-one], the IC50 on PI3K beta worked out at 908 nM; at PI3K delta, 86 nM; on PI3K alfa, 69 nM; on PI3K gamma, 1890 nM.
In the same order, the values of `COc1cc(-c2ccc3ncc(-c4cnc(N)c(C(F)(F)F)c4)n3n2)ccc1OCCCN1CCNC1=O` [Example 164, 1-(3-{4-[3-(6-Amino-5-trifluoro-methyl-pyridin-3-yl)-imidazo [1,2-b]pyridazin-6-yl]-2-methoxy-phenoxy}-propyl)-imidazolidin-2-one] are 154 nM, 26 nM, 6 nM and 453 nM.
Taken in the same sequence, the figures for `Nc1ncc(-c2cnc3ccc(-c4ccc(OC5CCNCC5)cc4)nn23)cc1C(F)(F)F` [Example 165, 5-{6-[4-(Piperidin-4-yloxy)-phenyl]-imidazo [1,2-b]pyridazin-3-yl}-3-trifluoro-methyl-pyridin-2-ylamine] were 355 nM, 207 nM, 131 nM and 371 nM.
Consider `COc1cc(-c2ccc3ncc(-c4cnc(N)c(C(F)(F)F)c4)n3n2)ccc1OC1CCNCC1` [Example 166, 5-{6-(3-Methoxy-4-(piperidin-4-yloxy)-phenyl]-imidazo [1,2-b]pyridazin-3-yl}-3-trifluoro-methyl-pyridin-2-ylamine], for which the IC50 on PI3K beta is 204 nM; on PI3K delta, 41 nM; at PI3K alfa it was 50 nM; at PI3K gamma, 556 nM.
`CC(C)C(=O)NCC1(COc2ccc(-c3ccc4ncc(-c5cnc(N)c(C(F)(F)F)c5)n4n3)cc2)COC1` [Example 167] gave a melting point of 205 to 207 °C. Besides, the IC50 on PI3K beta was 1480 nM. In addition, the IC50 at PI3K delta was 231 nM. Besides, at PI3K alfa, the IC50 amounted to 35 nM. Further, on PI3K gamma, the IC50 came to 2040 nM.
With `Nc1ncc(-c2ccc3ncc(-c4ccc(CO)cc4)n3n2)cc1C(F)(F)F` [Example 168, {4-[6-(6-Amino-5-trifluoromethyl-pyridin-3-yl)-imidazo[1,2-b]pyridazin-3-yl]-phenyl}-methanol], the melting point was 290 to 292 °C. On PI3K beta, the IC50 is 25 nM. Further, on PI3K delta, the IC50 amounted to 14 nM. Also, the IC50 on PI3K alfa came to 11 nM. Further, on PI3K gamma, the IC50 came to 585 nM.
Turning to `NCC1(COc2ccc(-c3ccc4ncc(-c5cnc(N)c(C(F)(F)F)c5)n4n3)cc2)COC1` [Example 169, 5-{6-[4-(3-Aminomethyl-oxetan-3-ylmethoxy)-phenyl]-imidazo[1,2-b]pyridazin-3-yl}-3-trifluoromethyl-pyridin-2-ylamine], the IC50 on PI3K beta is 82 nM; at PI3K delta, 53 nM; on PI3K alfa, 45 nM; at PI3K gamma, 324 nM.
Taken in the same sequence, the figures for `Nc1ncc(-c2ccc3ncc(-c4ccc(OCCCN5CCOCC5)cc4)n3n2)cc1C(F)(F)F` [Example 171, 5-{3-[4-(3-Morpholin-4-yl-propoxy)-phenyl]-imidazo [1,2-b]pyridazin-6-yl}-3-trifluoro-methyl-pyridin-2-ylamine] were 185 nM, 61 nM, 49 nM and 480 nM.
In turn, `Nc1ncc(-c2cnc3ccc(-c4ccc(OCC5(CNC(=O)C6CC6)COC5)cc4)nn23)cc1C(F)(F)F` [Example 172, Cyclopropanecarboxylic acid (3-{4-[3-(6-amino-5-trifluoromethyl-pyridin-3-yl)-imidazo[1,2-b]pyridazin-6-yl]-phenoxymethyl}-oxetan-3-ylmethyl)-amide] showed a melting point of 223 to 225 °C. Besides, on PI3K beta, the IC50 was determined as 1050 nM. The IC50 on PI3K delta came to 139 nM. In addition, the IC50 on PI3K alfa was 48 nM. For the same compound, the IC50 at PI3K gamma worked out at 461 nM.
Take `Nc1ncc(-c2ccc3ncc(-c4ccc(OCCCc5ccncc5)cc4)n3n2)cc1C(F)(F)F` [Example 174, 5-{3-[4-(3-Pyridin-4-yl-propoxy)-phenyl]-imidazo [1,2-b]pyridazin-6-yl}-3-trifluoro-methyl-pyridin-2-ylamine]: the IC50 on PI3K beta came to 2060 nM; on PI3K delta it was 224 nM; on PI3K alfa it was 106 nM; at PI3K gamma, 2070 nM.
In the same order, the values of `CC(C)(C)OC(=O)NCCCOc1ccc(-c2ccc3ncc(-c4cnc(N)c(C(F)(F)F)c4)n3n2)cn1` [Example 175, (3-{5-[3-(G-Amino-5-trifluoro-methyl-pyridin-3-yl)-imidazo [1,2-b]pyridazin-6-yl]-pyridin-2-yloxy}-propyl)-carbamic acid tert-butyl ester] are 7100 nM, 421 nM, 119 nM and > 9100 nM.
In the same order, the values of `NCCCOc1ccc(-c2ccc3ncc(-c4cnc(N)c(C(F)(F)F)c4)n3n2)cn1` [Example 176, 5-{6-[6-(3-Amino-propoxy)-pyridin-3-yl]-imidazo-[1,2b]pyridazin-3-yl}-3-trifluoro-methyl-pyridin-2-ylamine] are 81 nM, 41 nM, 82 nM and 2440 nM.
Taken in the same sequence, the figures for `Nc1ncc(-c2cnc3ccc(-c4ccc(OCCCNC(=O)C5CC5)nc4)nn23)cc1C(F)(F)F` [Example 177, Cyclo-propane-carboxylic acid (3-{5-[3-(6-amino-5-trifluoro-methyl-pyridin-3-yl)-imidazo [1,2-b]pyridazin-6-yl]-pyridin-2-yloxy}-propyl)-amide] were 331 nM, 92 nM, 11 nM and > 9100 nM.
Take `c1cc2cc(-c3cnc4ccc(-c5ccc6c(c5)OCO6)nn34)cnc2[nH]1` [Example 178, 6-Benzo [1,3] dioxol-5-yl-3-(1H-pyrrolo [2,3-b]pyridin-5-yl)-imidazo [1,2-b] pyridazine]: the IC50 at PI3K beta was 6190 nM; at PI3K delta it was 495 nM; on PI3K alfa, 793 nM; at PI3K gamma, > 9100 nM.
Turning to `COc1ccccc1-c1ccn2ncc(-c3ccc(C(N)=O)cc3)c2n1` [Example 179, 4-[5-(2-Methoxy-phenyl)-pyrazolo[1,5-a]pyrimidin-3-yl]-benzamide], the IC50 on PI3K beta is > 9100 nM; at PI3K delta, 448 nM; at PI3K alfa it was 3900 nM; on PI3K gamma, 2920 nM.
As for `Nc1ncc(-c2ccc3ncc(-c4ccc(CN5CCC(C(=O)N6CCCCCC6)CC5)cc4)n3n2)cc1C(F)(F)F` [Example 182, (1-{4-[6-(6-Amino-5-trifluoromethyl-pyridin-3-yl)-imidazo[1,2-b]pyridazin-3-yl]-benzyl}-piperidin-4-yl)-azepan-1-yl-methanone], the melting point is 249 to 252 °C.
On to `Nc1ncc(-c2ccc3ncc(-c4ccc(CN5CCC(C(=O)N6CCCCC6)CC5)cc4)n3n2)cc1C(F)(F)F` [Example 183, (1-{4-[6-(6-Amino-5-trifluoromethyl-pyridin-3-yl)-imidazo[1,2-b]pyridazin-3-yl]-benzyl}-piperidin-4-yl)-piperidin-1-yl-methanone], for which the melting point lay in the range of 263 to 266 °C.

Broadly, the melting point is the temperature of the solid-liquid transition.
